Assays:
Assay in all cases: viability relative to DMSO control (fraction); higher = less drug effect (more viable cells)
Conditions in all cases: 48 h
[1] = system: primary AML patient cells (S007)
Procedure, shortened: (§1)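 In 384-well plates with compounds pre-plated at five concentrations (one well per concentration), primary mononuclear tumour cells were plated at 4 × 10^4 cells per well. The cells came from blood or bone marrow by Ficoll isolation or from processed lymph node, and were used fresh or cryopreserved. Culture ran for 48 h at 37 °C and 5% CO2 in RPMI-1640 containing penicillin/streptomycin, L-glutamine and human serum. Viability was read as CellTiter-Glo luminescence, normalised to the median of 16 inner DMSO wells.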

[2] = system: primary AML patient cells (S079)
Procedure, shortened: as §1

[3] = system: primary AML patient cells (S027)
Procedure, shortened: as §1

[4] = system: primary AML patient cells (S019)
Procedure, shortened: as §1

[5] = system: primary AML patient cells (S071)
Procedure, shortened: as §1

[6] = system: primary AML patient cells (S091)
Procedure, shortened: as §1

[7] = system: primary MCL patient cells (S041)
Procedure, shortened: as §1

[8] = system: primary T-PLL patient cells (S008)
Procedure, shortened: as §1

[9] = system: primary AML patient cells (S002)
Procedure, shortened: as §1

[10] = system: primary AML patient cells (S025)
Procedure, shortened: as §1

[11] = system: primary AML patient cells (S037)
Procedure, shortened: as §1

[12] = system: primary AML patient cells (S072)
Procedure, shortened: as §1

[13] = system: primary DLBCL patient cells (S082)
Procedure, shortened: as §1

[14] = system: primary AML patient cells (S089)
Procedure, shortened: as §1

[15] = system: primary AML patient cells (S009)
Procedure, shortened: as §1

[16] = system: primary T-NHL patient cells (S058)
Procedure, shortened: as §1

[17] = system: primary DLBCL patient cells (S049)
Procedure, shortened: as §1

[18] = system: primary DLBCL patient cells (S076)
Procedure, shortened: as §1

CCN1CCN(Cc2ccc(Nc3ncc(F)c(-c4cc(F)c5nc(C)n(C(C)C)c5c4)n3)nc2)CC1
viability ([1]; 0.024 µM): 0.759
viability ([1]; 0.12 µM): 0.725
viability ([1]; 0.6 µM): 0.782
viability ([1]; 3 µM): 0.668
viability ([1]; 15 µM): 0.0289
viability ([2]; 0.024 µM): 0.969
viability ([2]; 0.12 µM): 1.07
viability ([2]; 0.6 µM): 1.03
viability ([2]; 3 µM): 0.598
viability ([2]; 15 µM): 0.0143
viability ([3]; 0.024 µM): 1.05
viability ([3]; 0.12 µM): 1.05
viability ([3]; 0.6 µM): 0.953
viability ([3]; 3 µM): 0.313
viability ([3]; 15 µM): 0.018
viability ([4]; 0.024 µM): 1.18
viability ([4]; 0.12 µM): 0.939
viability ([4]; 0.6 µM): 1.13
viability ([4]; 3 µM): 0.232
viability ([4]; 15 µM): 0.0632
viability ([5]; 0.024 µM): 0.728
viability ([5]; 0.12 µM): 0.533
viability ([5]; 0.6 µM): 0.39
viability ([5]; 3 µM): 0.0958
viability ([5]; 15 µM): 0.0535
viability ([6]; 0.024 µM): 0.77
viability ([6]; 0.12 µM): 0.939
viability ([6]; 0.6 µM): 0.849
viability ([6]; 3 µM): 0.569
viability ([6]; 15 µM): 0.333
viability ([7]; 0.024 µM): 0.938
viability ([7]; 0.12 µM): 0.812
viability ([7]; 0.6 µM): 0.757
viability ([7]; 3 µM): 0.0785
viability ([7]; 15 µM): 0.00539
viability ([8]; 0.024 µM): 1.04
viability ([8]; 0.12 µM): 0.981
viability ([8]; 0.6 µM): 1.08
viability ([8]; 3 µM): 0.415
viability ([8]; 15 µM): 0.0352
viability ([9]; 0.024 µM): 0.84
viability ([9]; 0.12 µM): 0.894
viability ([9]; 0.6 µM): 0.884
viability ([9]; 3 µM): 0.363
viability ([9]; 15 µM): 0.139
viability ([10]; 0.024 µM): 1.11
viability ([10]; 0.12 µM): 1.02
viability ([10]; 0.6 µM): 1.1
viability ([10]; 3 µM): 0.372
viability ([10]; 15 µM): 0.0187
viability ([11]; 0.024 µM): 0.952
viability ([11]; 0.12 µM): 0.926
viability ([11]; 0.6 µM): 1.03
viability ([11]; 3 µM): 0.71
viability ([11]; 15 µM): 0.255
viability ([12]; 0.024 µM): 0.893
viability ([12]; 0.12 µM): 1.03
viability ([12]; 0.6 µM): 0.73
viability ([12]; 3 µM): 0.251
viability ([12]; 15 µM): 0.0132
viability ([13]; 0.024 µM): 0.915
viability ([13]; 0.12 µM): 1.01
viability ([13]; 0.6 µM): 1.19
viability ([13]; 3 µM): 0.543
viability ([13]; 15 µM): 0.0123
viability ([14]; 0.024 µM): 0.589
viability ([14]; 0.12 µM): 0.962
viability ([14]; 0.6 µM): 0.576
viability ([14]; 3 µM): 0.0472
viability ([14]; 15 µM): 0.0221
viability ([15]; 0.024 µM): 1.05
viability ([15]; 0.12 µM): 0.955
viability ([15]; 0.6 µM): 1.03
viability ([15]; 3 µM): 0.451
viability ([15]; 15 µM): 0.0338

Cc1nc(Nc2ncc(C(=O)Nc3c(C)cccc3Cl)s2)cc(N2CCN(CCO)CC2)n1 [Dasatinib]
viability ([1]; 0.0016 µM): 0.89
viability ([1]; 0.008 µM): 0.964
viability ([1]; 0.04 µM): 0.917
viability ([1]; 0.2 µM): 0.837
viability ([1]; 1 µM): 0.755
viability ([2]; 0.0016 µM): 0.973
viability ([2]; 0.008 µM): 0.911
viability ([2]; 0.04 µM): 0.863
viability ([2]; 0.2 µM): 0.812
viability ([2]; 1 µM): 1.04
viability ([3]; 0.0016 µM): 1.06
viability ([4]; 0.0016 µM): 1.14
viability ([4]; 0.008 µM): 1.14
viability ([4]; 0.04 µM): 1.07
viability ([4]; 0.2 µM): 0.986
viability ([4]; 1 µM): 1.02
viability ([16]; 0.0016 µM): 0.962
viability ([16]; 0.008 µM): 0.836
viability ([16]; 0.04 µM): 0.861
viability ([16]; 0.2 µM): 0.834
viability ([16]; 1 µM): 0.855
viability ([5]; 0.0016 µM): 1.04
viability ([5]; 0.008 µM): 1.05
viability ([5]; 0.04 µM): 1
viability ([5]; 0.2 µM): 0.948
viability ([5]; 1 µM): 0.951
viability ([6]; 0.0016 µM): 0.951
viability ([6]; 0.008 µM): 0.924
viability ([6]; 0.04 µM): 0.787
viability ([6]; 0.2 µM): 0.784
viability ([6]; 1 µM): 1.29
viability ([7]; 0.0016 µM): 0.903
viability ([7]; 0.008 µM): 0.79
viability ([7]; 0.04 µM): 0.723
viability ([7]; 0.2 µM): 0.67
viability ([7]; 1 µM): 0.6
viability ([8]; 0.0016 µM): 1
viability ([8]; 0.008 µM): 0.974
viability ([8]; 0.04 µM): 0.968
viability ([8]; 0.2 µM): 0.973
viability ([8]; 1 µM): 0.996
viability ([9]; 0.0016 µM): 0.979
viability ([9]; 0.008 µM): 1.04
viability ([9]; 0.04 µM): 0.799
viability ([9]; 0.2 µM): 0.764
viability ([9]; 1 µM): 1.04
viability ([17]; 0.0016 µM): 0.952
viability ([17]; 0.008 µM): 0.83
viability ([17]; 0.04 µM): 0.814
viability ([17]; 0.2 µM): 0.497
viability ([17]; 1 µM): 0.33
viability ([10]; 0.0016 µM): 0.961
viability ([10]; 0.008 µM): 1.02
viability ([10]; 0.04 µM): 0.978
viability ([10]; 0.2 µM): 0.965
viability ([10]; 1 µM): 1.14
viability ([11]; 0.0016 µM): 1.04
viability ([11]; 0.008 µM): 1.01
viability ([11]; 0.04 µM): 1
viability ([11]; 0.2 µM): 0.982
viability ([11]; 1 µM): 1.03
viability ([18]; 0.0016 µM): 0.835
viability ([18]; 0.008 µM): 0.672
viability ([18]; 0.04 µM): 0.628
viability ([18]; 0.2 µM): 0.532
viability ([18]; 1 µM): 0.535
viability ([12]; 0.0016 µM): 0.945
viability ([12]; 0.008 µM): 0.851
viability ([12]; 0.04 µM): 0.712
viability ([12]; 0.2 µM): 0.623
viability ([12]; 1 µM): 0.704
viability ([13]; 0.0016 µM): 0.966
viability ([13]; 0.008 µM): 0.847
viability ([13]; 0.04 µM): 0.643
viability ([13]; 0.2 µM): 0.298
viability ([13]; 1 µM): 0.0983
viability ([14]; 0.0016 µM): 0.976
viability ([14]; 0.008 µM): 1.03
viability ([14]; 0.04 µM): 0.576
viability ([14]; 0.2 µM): 0.504
viability ([14]; 1 µM): 0.537
viability ([15]; 0.0016 µM): 0.987
viability ([15]; 0.008 µM): 0.965
viability ([15]; 0.04 µM): 0.993
viability ([15]; 0.2 µM): 0.972
viability ([15]; 1 µM): 1

CCc1cnn2c(NCc3ccc[n+]([O-])c3)cc(N3CCCC[C@H]3CCO)nc12 [Dinaciclib]
viability ([1]; 0.0016 µM): 0.637
viability ([1]; 0.008 µM): 0.175
viability ([1]; 0.04 µM): 0.118
viability ([1]; 0.2 µM): 0.12
viability ([1]; 1 µM): 0.141
viability ([2]; 0.0016 µM): 1
viability ([2]; 0.008 µM): 0.153
viability ([2]; 0.04 µM): 0.028
viability ([2]; 0.2 µM): 0.0285
viability ([2]; 1 µM): 0.0293
viability ([3]; 0.0016 µM): 1.05
viability ([3]; 0.008 µM): 0.12
viability ([3]; 0.04 µM): 0.0422
viability ([3]; 0.2 µM): 0.0393
viability ([3]; 1 µM): 0.0395
viability ([4]; 0.0016 µM): 1.31
viability ([4]; 0.008 µM): 0.54
viability ([4]; 0.04 µM): 0.114
viability ([4]; 0.2 µM): 0.116
viability ([4]; 1 µM): 0.126
viability ([5]; 0.0016 µM): 0.966
viability ([5]; 0.008 µM): 0.105
viability ([5]; 0.04 µM): 0.107
viability ([5]; 0.2 µM): 0.0985
viability ([5]; 1 µM): 0.0952
viability ([6]; 0.0016 µM): 1.07
viability ([6]; 0.008 µM): 0.171
viability ([6]; 0.04 µM): 0.0777
viability ([6]; 0.2 µM): 0.076
viability ([6]; 1 µM): 0.0799
viability ([7]; 0.0016 µM): 0.938
viability ([7]; 0.008 µM): 0.0691
viability ([7]; 0.04 µM): 0.0382
viability ([7]; 0.2 µM): 0.0378
viability ([7]; 1 µM): 0.0402
viability ([8]; 0.0016 µM): 0.971
viability ([8]; 0.008 µM): 0.736
viability ([8]; 0.04 µM): 0.127
viability ([8]; 0.2 µM): 0.128
viability ([8]; 1 µM): 0.143
viability ([9]; 0.0016 µM): 1.17
viability ([9]; 0.008 µM): 0.272
viability ([9]; 0.04 µM): 0.277
viability ([9]; 0.2 µM): 0.265
viability ([9]; 1 µM): 0.274
viability ([10]; 0.0016 µM): 0.976
viability ([10]; 0.008 µM): 0.286
viability ([10]; 0.04 µM): 0.063
viability ([10]; 0.2 µM): 0.0602
viability ([10]; 1 µM): 0.0589
viability ([11]; 0.0016 µM): 1.04
viability ([11]; 0.008 µM): 0.903
viability ([11]; 0.04 µM): 0.39
viability ([11]; 0.2 µM): 0.38
viability ([11]; 1 µM): 0.374
viability ([12]; 0.0016 µM): 0.979
viability ([12]; 0.008 µM): 0.169
viability ([12]; 0.04 µM): 0.0691
viability ([12]; 0.2 µM): 0.0617
viability ([12]; 1 µM): 0.065
viability ([13]; 0.0016 µM): 0.98
viability ([13]; 0.008 µM): 0.102
viability ([13]; 0.04 µM): 0.0294
viability ([13]; 0.2 µM): 0.0307
viability ([13]; 1 µM): 0.0332
viability ([14]; 0.0016 µM): 0.929
viability ([14]; 0.008 µM): 0.0524
viability ([14]; 0.04 µM): 0.0434
viability ([14]; 0.2 µM): 0.0447
viability ([14]; 1 µM): 0.0498
viability ([15]; 0.0016 µM): 1.06
viability ([15]; 0.008 µM): 0.189
viability ([15]; 0.04 µM): 0.0815
viability ([15]; 0.2 µM): 0.0774
viability ([15]; 1 µM): 0.0863
